Source: US12404332B2, “Methods for diagnosing and treating cancers” (Research Development Foundation, priority 2020, dated 2025)

How the values were obtained:
B16 tumors = experiment: B16 tumor challenge in mice treated with chlorambucil; format: in vivo, mouse
From the text: Mice and in vivo treatments: Wild-type (WT) C57BL/6 mice NSG were purchased from Jackson Labs (Bar Harbor, ME), bred in our animal facility and used at 7-20 weeks old. All mice were given ad libitum water and food and housed under specific pathogen-free conditions. Mice used here were matched for sex and age in each experiment. 1×10^5 control or PD-L1^KOB16 cells were given subcutaneously (SQ, both sexes). 4×10^6 control or PD-L1^lo ID8agg cells in log growth phase were given intraperitoneally (females only). B16 tumor growth was measured with Vernier calipers and volume was calculated as (length×width^2)/2. Intraperitoneal ID8agg tumor growth was determined by IVIS Lumina Imaging System (Perkin Elmer; Waltham, MA) 15 minutes after i.p. injection of 3 mg of PBS-dissolved d-luciferin K+ (Gold Biotechnology; St. Louis, MO) with 30 second exposures, medium binning, and F/stop=1. Identical regions of interest were drawn over each subject's abdomen and average radiance (photons/see/cm2/sr) was quantified with Living Image software version 4.2. Body weight was measured every week for PD-L1^lo ID8agg mice as a surrogate for tumor growth, and tumors were weighed at end-experiment in confirmation. Survival was determined as >1500 mm^3 for SQ tumors and distress or >20% mouse weight gain for PD-L1^lo ID8agg tumors. […]

PD-L1 in ID8agg cells = experiment: PD-L1 mRNA (RT-qPCR) in ID8agg cells; format: cell-based, mouse
Description: FIGS. 39A-C: CAMB reduces PD-L1 through ubiquitination. FIG. 39A, RT-qPCR for PD-L1 mRNA in OVCAR5 and ID8agg cells treated with (+) or without (−) chlorambucil for 48 hours. (n=4). FIG. 39B, Western blot for PD-L1 protein in OVCAR5 cells with (+) or without (−) MG132 for 6 or 20 hours. (upper panel). PD-L1 expression in OVCAR5 cells treated with chlorambucil 48 hours and/or MG132 for 6 hours (lower panel). FIG. 39C, Ubiquitinated PD-L1 was immunoprecipitated (IP) and subjected to Western blot analysis with anti-ubiquitin (Ub) antibody. Cells were treated with chlorambucil for indicated times prior to ubiquitination analysis.
Quantitative Real-Time Reverse Transcriptase Polymerase Chain Reaction: Total RNA was isolated from homogenized whole lung tissue with Trizol reagent (Invitrogen) according to manufacturer instructions. Subsequently, cDNA was synthesized with 1-2 μg of total RNA using the, SuperScript III reverse transcriptase (Invitrogen). Quantitative PCR (qPCR) was conducted using the Bio-Rad Real-Time PCR System (Applied Biosystems), amplified with transcript-specific primers with SYBR Green (Thermo Scientific), according to manufacturer instructions. Mouse primers were: Tyr, 5′-[…]-3′ (SEQ ID NO: 1) and 5′-[…]-3′ (SEQ ID NO: 2); gp100, 5′-[…]-3′ (SEQ ID NO: 3) and 5′-ID NO: 4); Trp-2, 5′-[…]-3′ (SEQ […]-3′ (SEQ ID NO: 5) and 5′-[…] […]

ID8agg and B16 cells = experiment: Chlorambucil in vitro cell growth, viability, apoptosis and calreticulin; format: cell-based, mouse
Description: FIGS. 34A-D: FIG. 34A, Cells cultured in vitro with chlorambucil at indicated concentrations and counts determined on Vi-Cell. p-value, unpaired t-test. VC, vehicle control. FIG. 34B, Annexin V-FITC/PI (AV/PI) dual staining assay. Upper left, necrotic cells). Lower left, live cells. Lower right, early apoptotic cells and upper right, late apoptotic cells. ID8agg (CAMB 5 μM) and B16 (CAMB 10 μM) cells were treated for 48 hours. FIG. 34C, CAMB-treated ID8agg and B16 cells stained with an isotype control or an anti-calreticulin (CRT) antibody followed by immunofluorescence cytometry. FIG. 34D, Tumor cells were treated with the indicated concentrations with CAMB 48 h. Cell viability was detected by CCK-8 assay and relative cell viability ratio were compared between WT cells and PD-L1KO or PD-Lllo cells at different concentration point.
Cell proliferation and viability assays: Cells (0.5-1×10^3) were plated in 96-well plastic culture plates in 100 μL medium and treated with CAMB. Cell viability was determined by a cell counting kit-8 (CCK-8) (Sigma). Absorbance was measured at 450 nm using a BioTek Synergy 2 Multi-Mode Plate Reader. Proliferation was assessed in triplicate in three separate experiments for in vitro all data shown.
(§1) Flow cytometry: Mice were sacrificed by cervical dislocation after induction of deep isoflurane anesthesia. ID8agg tumors were collected and cells were stained as described (Derup et al., 2020) using LSR II hardware and analyzed by FACS Diva (BD Bioscience) or Flow Jo software (Flow Jo, LLC). Anti-mouse (clone 10F.9G2) and human (clone 29E.2A3) PD-L1 [both PE/Cy7, Cat #124314 (mouse) 329718 (human)] were matched with isotype control. Apoptosis assessment used Annexin V and propidium iodide (Thermo Scientific) per manufacturer instruction.

ES2 cells = experiment: Tumor-initiating cell (TIC) flow cytometry, ES2 cells; format: cell-based, human
Description: FIGS. 40A-C: CAMB suppresses mTORC1 signals and reduces TIC numbers. FIG. 40A, Western blots for proteins in the mTORC1 pathway. Cells were treated with chlorambucil as indicated concentration for 48 hours. FIG. 40B, Western blot for LC3I/II to assess autophagy in cell lysates treated±chlorambucil at indicated concentrations. FIG. 40C, Percent of ALDH^hi TIC by flow cytometry of ES2 cells cultured±chlorambucil. Percent CD44^+CD24^+ ID8agg TIC and CD44^+CD133^+CD24^+ B16 TIC detected by flow cytometry.
as §1

[1] = test system: PD-1 and β2M on OVCAR5 (human ovarian) cells; experiment: PD-1 and B2M expression on OVCAR5 cells; format: cell-based
Description: Tumor and ascites were collected for flow cytometry analyses. Summary graph of CD45-PD-L1 cell percentage and MFI. FIG. 33D, PD-1 and B2M expression on OVCAR5 (human ovarian) cells treated with (+) or without (−) chlorambucil for 48 hours.
as §1

## O=C(O)CCCc1ccc(N(CCCl)CCCl)cc1 [chlorambucil]
B16 tumors; WT mice
  treatment efficacy in PD-L1^KO B16 challenge: significantly reduced
B16 tumors; severely immunodeficient NSG mice, B16
  treatment of tumors: effectively treated both
PD-L1 in ID8agg cells
  PD-L1 mRNA: significantly reduced
ID8agg and B16 cells
  cell growth in vitro: inhibited cell growth in vitro with little or no killing
  cell surface calreticulin: significantly increased
  immunogenic cell death (ICD): induced ICD independent of tumor PD-L1 status
  sensitivity of CTRL cells compared with PD-L1^lo or PD-L1^KO cells: more sensitive
ID8agg and B16 cells; ID8agg or B16 cells
  apoptosis: did not induce apoptosis
ES2 cells
  ALDH^hi TIC population: significantly reduced
[1]
  PD-1 and β2M on the cell surface: Upregulation
